This is an account of results in paper PMC7997574, “Lead Optimization of Benzoxazolone Carboxamides as Orally Bioavailable and CNS Penetrant Acid Ceramidase Inhibitors” (Journal of Medicinal Chemistry, 2020).

Structures are written as SMILES. Converted amounts (≈) assume the structure as drawn.

Data set [1] can be described thus: Aqueous kinetic solubility assay. The format is physicochemical. To be noted: PBS, pH 7.4. The method, then:
The aqueous kinetic solubility was determined from a 10 mM MeCN stock solution of test compound in Phosphate-Buffered Saline (PBS) at pH 7.4. The study was performed by incubation of an aliquot of 10 mM MeCN stock solution in PBS (pH 7.4) at a target concentration of 250 μM. The incubation was carried out under shaking at 25 °C for 1 h followed by centrifugation at 21100 × g for 30 min. The supernatant was analyzed by UPLC/MS for the quantification of the dissolved compound (in μM) by UV at a specific wavelength (215 nm). […] The UPLC/MS analyses were performed on a Waters ACQUITY UPLC/MS system consisting of a single quadrupole detector (SQD) Mass Spectrometer (MS) equipped with an Electrospray Ionization (ESI) interface and a Photodiode Array Detector (PDA). The PDA range was 210–400 nm. ESI in positive mode was used in the mass scan range of 100–650 Da. The analyses were run on an ACQUITY UPLC BEH C18 column (50 × 2.1 mm ID, particle size 1.7 μm) with a VanGuard BEH C18 precolumn (5 × 2.1 mm ID, particle size 1.7 μm), using 10 mM NH4OAc in H2O at pH 5 adjusted with AcOH (A) and 10 mM NH4OAc in MeCN/H2O (95:5) at pH 5 (B) as the mobile phase. Values are reported as mean values of ≥2 experiments performed.

Data set [2] can be described thus: In vitro plasma stability study. The format is in vitro ADME. To be noted: mouse plasma; read-out: m-plasma t1/2. The method, then: Freshly prepared 10 mM MeCN stock solution of test compound was diluted 50-fold with DMSO/H2O (1:1) and incubated at 37 °C for 2 h with mouse plasma added in 5% DMSO (preheated at 37 °C for 10 min). The final concentration was 2 μM. At each time point (0, 5, 15, 30, 60, and 120 min), 50 μL of incubation mixture was diluted with 200 μL of cold MeCN spiked with 200 nM internal standard followed by centrifugation at 3300 × g for 20 min. The supernatant was further diluted with H2O (1:1) for analysis. The concentration of test compound was quantified by LC/MS/MS on a Waters ACQUITY UPLC/MS TQD system consisting of a TQD MS equipped with an ESI interface. The analyses were run on an ACQUITY UPLC BEH C18 (50 × 2.1 mm ID, particle size 1.7 μm) with a VanGuard BEH C18 precolumn (5 × 2.1 mm ID, particle size 1.7 μm) at 40 °C. For each compound, the appropriate mobile phase was chosen. ESI was applied in positive mode. The response factors, calculated on the basis of the internal standard peak area, were plotted over time. When possible, response vs time profiles were fitted with Prism (GraphPad Software, Inc., USA) to estimate compound t1/2 in plasma. Values are the mean of at least two independent experiments performed in two technical replicates.

Data set [3] in a line: In vitro microsomal stability study. The format is in vitro ADME. To be noted: mouse liver microsomes; for half-life at 1 h, 4.6 µM / half-life at 4.6 μM: pH 7.4, read-out: m-LM t1/2; for m-LM [% at 60 min]: % remaining at 60 min. The method, then:
Freshly prepared 10 mM MeCN stock solution of test compound was preincubated at 37 °C for 15 min with mouse liver microsomes added in 0.1 M Tris HCl buffer (pH 7.4). The final concentration was 4.6 μM. After preincubation, the cofactors (NADPH, G6P, G6PDH, and MgCl2 predissolved in 0.1 M Tris HCl) were added to the incubation mixture, and the incubation was continued at 37 °C for 1 h. At each time point (0, 5, 15, 30, and 60 min), 30 μL of incubation mixture was diluted with 200 μL of cold MeCN spiked with 200 nM internal standard followed by centrifugation at 3300 × g for 15 min. The supernatant was further diluted with H2O (1:1) for analysis. The concentration of the test compound was quantified by LC/MS/MS on a Waters ACQUITY UPLC/MS TQD system consisting of a TQD MS equipped with an ESI interface. The analyses were run on an ACQUITY UPLC BEH C18 (50 × 2.1 mm ID, particle size 1.7 μm) with a VanGuard BEH C18 precolumn (5 × 2.1 mm ID, particle size 1.7 μm) at 40 °C. For each compound, the appropriate mobile phase was chosen. ESI was applied in positive mode. The percentage of test compound remaining at each time point relative to t = 0 was calculated. t1/2 was determined by a one-phase decay equation using a nonlinear regression of compound concentration vs time. Values are the mean of at least two independent experiments performed in two technical replicates.

The next data set concerns the target T1, AC (Homo sapiens, UniProt Q13510).
T1 sequence (Q13510 22-395): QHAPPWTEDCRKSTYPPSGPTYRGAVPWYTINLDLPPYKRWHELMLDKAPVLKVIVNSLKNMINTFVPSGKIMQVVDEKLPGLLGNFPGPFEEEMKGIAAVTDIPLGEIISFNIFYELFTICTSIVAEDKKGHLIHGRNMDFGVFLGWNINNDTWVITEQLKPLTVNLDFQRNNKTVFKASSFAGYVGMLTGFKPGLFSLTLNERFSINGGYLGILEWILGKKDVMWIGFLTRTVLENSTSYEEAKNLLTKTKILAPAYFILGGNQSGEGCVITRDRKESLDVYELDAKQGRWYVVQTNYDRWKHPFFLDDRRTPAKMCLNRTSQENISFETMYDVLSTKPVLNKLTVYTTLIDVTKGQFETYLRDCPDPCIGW
Description: Fluorogenic hAC assay on hAC-enriched lysate of HEK293 cells. The format is biochemical. Set-up: expressed in transfected cells. To be noted: for IC50: hAC expressed in HEK-293 cells, read-out: hAC IC50 (μM)±SD. The protocol:
HEK293 cells stably expressing hAC were grown in Dulbecco’s modified Eagle medium (DMEM) containing 10% FBS, 1% glutamine, 1 mM sodium pyruvate, and 500 μg mL^–1 G418. Cells were harvested, and pellets were stored at −80 °C until lysosomal-enriched lysate preparation. Cells were suspended in 20 mM Tris HCl (pH 7.5) with 0.32 M sucrose, sonicated, and centrifuged at 800 × g for 30 min at 4 °C. Supernatants were then centrifuged at 12000 × g for 30 min at 4 °C. Pellets were resuspended in PBS (pH 7.4) and subjected to three freeze–thaw cycles at −80 °C. The suspension was finally centrifuged at 105000 × g for 1 h at 4 °C, and protein concentration was measured in the supernatant with the bicinchoninic acid based protein assay. This hAC-enriched preparation allowed us to further optimize the enzymatic assay and to use small amounts of lysate (2 μg per well) at a 5 μM substrate (Rbm14–12) around its KM (KM = 5.0 μM).
The assay was performed in Optiplate 96-well black plates, with each reaction well containing a mixture of 25 mM NaOAc buffer (pH 4.5) and a fixed amount of protein (2 μg) in a volume of 85 μL. After 10 min of preincubation with test compounds (diluted 20× from DMSO stock solutions at different concentrations), the fluorogenic probe was added (diluted 40× from EtOH stock solution, final concentration 5 μM). After 3 h of incubation at 37 °C, reactions were stopped with 50 μL of MeOH and 100 μL of a 2.5 mg mL^–1 NaIO4 fresh solution in 100 mM glycine/NaOH buffer (pH 10.6). The plates were further incubated for 2 h at 37 °C in the dark, and fluorescence intensities were measured at excitation/emission wavelengths of 355/460 nm. Negative control samples consisted of the same incubation mixture in the absence of protein-enriched extracts. Data were plotted as a function of compound concentrations. IC50 values were calculated by nonlinear regression analysis using GraphPad Prism 5 (GraphPad Software Inc., CA, USA) applying a standard slope curve fitting. The reported IC50 values are the mean of at least three independent experiments performed in three technical replicates.

The compound `CN1CCC(c2ccc3c(c2)oc(=O)n3C(=O)NCCOCc2ccccc2)CC1` [22j, N-(2-Benzyloxyethyl)-6-(1-methyl-4-piperidyl)-2-oxo-1,3-benzoxazole-3-carboxamide] had a solubility at 1 h in data set [1] of 73 µM (≈ 29.9 µg/mL). The half-life at 2 µM in data set [2] worked out at 40 min. The half-life at 1 h, 4.6 µM in data set [3] is 30 min. For the same compound, at AC, the IC50 worked out at 0.215 ± 0.013 µM.
As for `CN1CCN(c2ccc3c(c2)oc(=O)n3C(=O)NCCCCc2ccccc2)CC1` [23f, 6-(4-Methylpiperazin-1-yl)-2-oxo-N-(4-phenylbutyl)-1,3-benzoxazole-3-carboxamide], the solubility at 1 h in data set [1] is less than 1 µM. Further, the half-life at 2 μM in data set [2] was less than 5 min. Also, in data set [3], the half-life at 4.6 μM is less than 5 min. Moreover, at AC, the IC50 was determined as 0.116 ± 0.069 µM.
The compound `CC(C)N1CCC(c2ccc3c(c2)oc(=O)n3C(=O)NCCCCc2ccccc2)CC1` [22g, 6-(1-Isopropyl-4-piperidyl)-2-oxo-N-(4-phenylbutyl)-1,3-benzoxazole-3-carboxamide] showed a solubility at 1 h in data set [1] of 50 µM (≈ 21.8 µg/mL). Moreover, the half-life at 2 µM in data set [2] came out at 40 min. Further, the half-life at 1 h, 4.6 µM in data set [3] was 60 min. Moreover, the 50% inhibitory concentration (IC50) on AC is 0.094 ± 0.042 µM.
Compound `CC(C)CN1CCC(c2ccc3c(c2)oc(=O)n3C(=O)NCCCCc2ccccc2)CC1` [22h, 6-(1-Isobutyl-4-piperidyl)-2-oxo-N-(4-phenylbutyl)-1,3-benzoxazole-3-carboxamide] displayed a solubility at 1 h in data set [1] of less than 1 µM. In addition, the half-life at 2 μM in data set [2] was found to be 60 min. Besides, in data set [3], the half-life at 4.6 μM was found to be 60 min. For the same compound, at AC, the concentration for half-maximal inhibition (IC50) worked out at 0.12 ± 0.03 µM.
In data set [1], `CC(=O)N1CCC(c2ccc3c(c2)oc(=O)n3C(=O)NCCCCc2ccccc2)CC1` [22i, 6-(1-Acetyl-4-piperidyl)-2-oxo-N-(4-phenylbutyl)-1,3-benzoxazole-3-carboxamide] gave a solubility at 1 h of less than 1 µM. Also, the half-life at 2 µM in data set [2] was found to be 30 min. The half-life at 1 h, 4.6 µM in data set [3] is 60 min. Also, the IC50 on AC is 0.064 ± 0.029 µM.
`CCCCCNC(=O)n1c(=O)oc2cc(C3CCN(C)CC3)ccc21` [22k, 6-(1-Methyl-4-piperidyl)-2-oxo-N-pentyl-1,3-benzoxazole-3-carboxamide] yielded a solubility at 1 h in data set [1] of 240 µM (≈ 82.9 µg/mL). Further, in data set [2], the half-life at 2 µM is 75 min and the half-life at 2 μM is greater than 60 min. In data set [3], the “m-LM [% at 60 min]” value is >60 [60%] and the half-life at 4.6 μM was greater than 60 min. In addition, the IC50 at AC is 0.396 ± 0.075 µM.
In data set [1], `CC(C)CNC(=O)n1c(=O)oc2ccc(C3CCN(C)CC3)cc21` [24c, N-Isobutyl-5-(1-methyl-4-piperidyl)-2-oxo-1,3-benzoxazole-3-carboxamide] had a solubility at 1 h of 60 µM (≈ 19.9 µg/mL). Moreover, the half-life at 2 µM in data set [2] is 30 min. In data set [3], the half-life at 1 h, 4.6 µM was 40 min. In addition, on AC, the IC50 was 0.295 ± 0.06 µM.
As to `CN1CCN(c2ccc3c(c2)oc(=O)n3C(=O)NCCCCc2ccccc2)C(=O)C1` [23k, 6-(4-Methyl-2-oxo-piperazin-1-yl)-2-oxo-N-(4-phenylbutyl)-1,3-benzoxazole-3-carboxamide], the solubility at 1 h in data set [1] is 20 µM (≈ 8.45 µg/mL). Besides, in data set [2], the half-life at 2 µM was found to be 20 min. Also, the half-life at 4.6 μM in data set [3] was less than 5 min. Besides, the IC50 at AC was found to be 0.052 ± 0.04 µM. The “fold more potent than 23e (hAC)” value on AC (vs 23e hAC IC50 = 0.363 μM) is reported as roughly 7 fold.
In data set [1], `CN1CCC(c2cc3oc(=O)n(C(=O)NCCCCc4ccccc4)c3cc2F)CC1` [22p, 5-Fluoro-6-(1-methyl-4-piperidyl)-2-oxo-N-(4-phenylbutyl)-1,3-benzoxazole-3-carboxamide] came in with a solubility at 1 h of 70 µM (≈ 29.8 µg/mL). Also, the half-life at 2 µM in data set [2] turned out to be 20 min. In addition, in data set [3], the “m-LM [% at 60 min]” value was determined as 70% and the half-life at 4.6 μM is greater than 60 min. For the same compound, the IC50 on AC was found to be 0.024 ± 0.002 µM.
In data set [1], `CCN1CCC(c2ccc3c(c2)oc(=O)n3C(=O)NCCCCc2ccccc2)CC1` [22f, 6-(1-Ethyl-4-piperidyl)-2-oxo-N-(4-phenylbutyl)-1,3-benzoxazole-3-carboxamide] yielded a solubility at 1 h of 198 µM (≈ 83.5 µg/mL). For the same compound, the half-life at 2 µM in data set [2] was 50 min. Also, in data set [3], the half-life at 1 h, 4.6 µM is 60 min. In addition, the IC50 on AC came out at 0.092 ± 0.043 µM.
In data set [1], `CC(C)CNC(=O)n1c(=O)oc2c(C3CCN(C)CC3)cccc21` [compound 25, N-Isobutyl-7-(1-methyl-4-piperidyl)-2-oxo-1,3-benzoxazole-3-carboxamide] showed a solubility at 1 h of 230 µM (≈ 76.2 µg/mL). The half-life at 2 µM in data set [2] was 40 min. Further, the half-life at 1 h, 4.6 µM in data set [3] worked out at 30 min. Also, the half-maximal inhibitory concentration (IC50) on AC stood at 0.535 ± 0.073 µM.
The matching figures for `CN1CCC(c2ccc3c(c2)oc(=O)n3C(=O)NCCCCc2ccc(F)cc2)CC1` [22o, N-[4-(4-Fluorophenyl)butyl]-6-(1-methyl-4-piperidyl)-2-oxo-1,3-benzoxazole-3-carboxamide]: 22 µM (≈ 9.36 µg/mL), 20 min, 30 min and 0.094 ± 0.03 µM.
